{
  "source": "patent US6696457B1",
  "about": "“Morphinoid compounds” (SmithKline Beecham p.l.c., priority 1999, dated 2004)",
  "key": {"[1]": {"assay": "metabolic stability: intrinsic clearance in liver microsomes", "format": "in vitro ADME, human", "details": "0.5 uM compound, 0.5 mg/ml microsomal protein, 37° C., 30 minutes, NADPH regenerating system", "method": "The metabolic stability of the compounds of the invention was determined in the following manner: the compounds were incubated (37° C.) at 0.5 uM over 30 minutes with microsomal protein (at a concentration of 0.5 mg/ml) and an NADPH regenerating system (cofactor); the incubation volume was made up to a total of 1 mL with 50 mM potassium phosphate buffer (pH 7.4).\nAll of the incubation components, apart from cofactor, were pre-incubated for approximately 5 minutes then the reaction was started by the addition of cofactor solution. 50 uL samples were removed from the incubation at 3 minute intervals and placed into 200 uL of acetonitrile (containing an Internal Standard) to precipitate the microsomal protein and terminate the reaction.\nAll samples were analysed by LC/MS for parent compound and Internal Standard (I.S) and the results calculated as peak area ratios: compound/I.S.\nThe peak area ratios were plotted against time and intrinsic clearance values were calculated from the fitted exponential decay curve:\nCLint (mL/min/g liver)=(k·V·microsomal yield)/[protein] […]\nk=rate constant from the exponential decay curve\nV=incubation volume (1 mL) microsomal yield=standard microsomal protein yield from 1 g liver (52.5 mg) [protein]=protein concentration in each incubation (0.5 mg/mL); a solution containing 0.5 uM of the compound under study was incubated with 0.5 mg of liver microsomal protein over 30 min at 37° C. Samples were taken, protein precipitated with acetonitrile and centrifuged prior HPLC-MS analysis."}, "[2]": {"target": "T1, human delta opioid receptor (h-DOR/CHO) (Homo sapiens, UniProt P41143)", "T1 construct": "expressed in transfected cells", "T1 sequence (P41143 whole entry)": "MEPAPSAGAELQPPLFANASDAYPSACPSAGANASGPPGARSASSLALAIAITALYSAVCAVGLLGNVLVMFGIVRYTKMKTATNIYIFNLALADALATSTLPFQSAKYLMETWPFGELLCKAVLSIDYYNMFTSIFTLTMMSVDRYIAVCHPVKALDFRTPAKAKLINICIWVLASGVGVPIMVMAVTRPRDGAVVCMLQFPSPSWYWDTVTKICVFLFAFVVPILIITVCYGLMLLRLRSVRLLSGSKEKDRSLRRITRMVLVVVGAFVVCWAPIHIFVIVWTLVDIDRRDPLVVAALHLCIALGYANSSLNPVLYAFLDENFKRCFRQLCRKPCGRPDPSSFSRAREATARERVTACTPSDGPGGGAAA", "assay": "cAMP bioassay: inhibition of forskolin-stimulated cAMP in h-DOR/CHO cells", "format": "cell-based", "method": "The delta agonistlantagonist activity of the compounds of the present invention is determined in the cAMP bioassay in CHO cell lines stably expressing the human delta opioid receptor (h-DOR/CHO).\nFor the cAMP assay whole h-DOR/CHO cells were incubated with test compounds in Krebs-Ringer 200 mM, buffered with HEPES, containing (mM): NaCl (125), KCl (5), KH2PO4 (0.4), MgSO4 (1.2), CaCl2 (1.2), NaHCO3(25), glucos (12) and IBMX (1). Cells were treated with forskolin […] to stimulate cAMP synthesis.\nThe cAMP content was determined using a double antibody [^125I]-cAMp radioimmunoassay (Amersham RPA 509). The data were normalised to protein content."}, "[3]": {"assay": "in vivo clearance and absolute bioavailability"}},
  "note": "Where a name gives a salt, the structure may show the parent alone.",
  "data": [
    {"compound": "Cc1c(C(=O)N(Cc2ccccc2)C(C)C)[nH]c2c1C[C@@]1(O)[C@H]3Cc4ccccc4[C@@]1(CCN3)C2", "note": "(as salt: hydrochloride) [Example 2, [10R,4bR-(4b beta,9a beta)]-7-[(N-benzyl-N-isopropyl)aminocarbonyl]-8-methyl-4b,5,9,9a, 10,11-hexahydro-9a-hydroxy-(6H)-10,4b-(iminoethano)phenanthro-[3,2-b]pyrrole]", "values": [
      {"measurement": "melting point", "value": "> 250", "unit": "°C"}
    ]},
    {"compound": "Cc1c(C(=O)N(C(C)C)C(C)C)[nH]c2c1CC1(O)C3Cc4ccccc4C1(CCN3)C2", "note": "(stereo not drawn) [Example 1, [10R,4bR-(4b beta,9a beta)]-7-(N,N-diisopropyl)aminocarbonyl-8-methyl-4b,5,9,9a, 10,11-hexahydro-9a-hydroxy-(6H)-10,4b-(iminoethano)phenanthro[3,2-b]pyrrole]", "values": [
      {"measurement": "in vitro Clearance (human microsomes) CL", "setting": "[1]", "value": 1.3, "unit": "ml/min/g liver"}
    ]},
    {"compound": "Cc1c(C(=O)N(Cc2ccccc2)C(C)C)[nH]c2c1C[C@@]1(O)[C@H]3Cc4ccccc4[C@@]1(CCN3)C2", "note": "[Example 2, [10R,4bR-(4b beta,9a beta)]-7-[(N-benzyl-N-isopropyl)aminocarbonyl]-8-methyl-4b,5,9,9a, 10,11-hexahydro-9a-hydroxy-(6H)-10,4b-(iminoethano)phenanthro-[3,2-b]pyrrole]", "values": [
      {"measurement": "IC50", "setting": "[2]", "value": 1.15, "unit": "nM"},
      {"measurement": "antagonism of the agonist activity by the selective delta antagonist naltrindole", "setting": "[2]; naltrindole 100 nM, h-DOR/CHO cells", "value": "completely antagonised"}
    ]},
    {"compound": "CCN(CC)C(=O)c1[nH]c2c(c1C)C[C@@]1(O)[C@H]3Cc4ccccc4[C@@]1(CCN3)C2", "note": "[Example 3, [10R,4bR-(4b beta,9a beta)]-7-(N,N-diethyl)aminocarbonyl-8-methyl-4b,5,9,9a, 10,11-hexahydro-9a-hydroxy-(6H)-10,4b-(iminoethano)phenanthro[3,2-b]pyrrole]", "values": [
      {"measurement": "in vitro Clearance (human microsomes) CL", "setting": "[1]", "value": 0.8, "unit": "ml/min/g liver"},
      {"measurement": "in vivo Clearance CL", "setting": "[3]", "value": "27 ± 2", "unit": "mL/min/kg"},
      {"measurement": "in vivo Absolute bioavailability F ipv", "setting": "[3]; ipv", "value": "60 ± 7", "unit": "%"}
    ]},
    {"compound": "Cc1c(C(=O)N(Cc2ccccc2)C(C)C)[nH]c2c1CC1C3Cc4ccccc4C1(CCN3)C2", "note": "(stereo not drawn) [Example 4, [10R,4bS-(4b beta,9a beta)]-7-(N-isopropyl-N-benzyl)aminocarbonyl-8-methyl-4b,5,9,9a, 10,11-hexahydro-(6H)-10-,4b-(iminoethano)phenanthro[3,2-b]pyrrole]", "values": [
      {"measurement": "in vitro Clearance (human microsomes) CL", "setting": "[1]", "value": 3.3, "unit": "ml/min/g liver"}
    ]},
    {"compound": "CCN(Cc1ccccc1)C(=O)c1[nH]c2c(c1C)CC1(O)C3Cc4ccccc4C1(CCN3)C2", "note": "(stereo not drawn) [Example 5, [10R,4bR-(4b beta,9a beta)]-7-(N-benzyl-N-ethyl)aminocarbonyl-8-methyl-4b,5,9,9a, 10,11-hexahydro-9a-hydroxy-(6H)-10,4b-(iminoethano)phenanthro[3,2-b]pyrrole]", "values": [
      {"measurement": "in vitro Clearance (human microsomes) CL", "setting": "[1]", "value": 2.0, "unit": "ml/min/g liver"}
    ]},
    {"compound": "Cc1c(C(=O)N2CCc3ccccc3C2)[nH]c2c1CC1(O)C3Cc4ccccc4C1(CCN3)C2", "note": "(stereo not drawn) [Example 6, [10R,4bR-(4b beta,9a beta)]-7-(1,2,3,4-tetrahydroisoquinolin-2-yl)carbonyl-8-methyl-4b,5,9,9a, 10,11-hexahydro-9a-hydroxy-(6H)-1 0,4b-(iminoethano)phenanthro[3,2-b]pyrrole]", "values": [
      {"measurement": "in vitro Clearance (human microsomes) CL", "setting": "[1]", "value": "<0.6", "unit": "ml/min/g liver"}
    ]},
    {"compound": "Cc1c(C(=O)CC(C)C)[nH]c2c1C[C@@]1(O)[C@H]3Cc4ccccc4[C@@]1(CCN3)C2", "note": "[Example 7, [10R,4bR-(4b beta,9a beta)]-7-isobutylcarbonyl-8-methyl4b,5,9,9a,10,11-hexahydro-9a-hydroxy-(6H)-10,4b-(iminoethano)phenanthro[3,2-b]pyrrole]", "values": [
      {"measurement": "in vitro Clearance (human microsomes) CL", "setting": "[1]", "value": "<0.6", "unit": "ml/min/g liver"},
      {"measurement": "melting point", "value": "170 to 175", "unit": "°C"}
    ]},
    {"compound": "CCN(C(=O)c1[nH]c2c(c1C)C[C@@]1(O)[C@H]3Cc4ccccc4[C@@]1(CCN3)C2)c1ccccc1", "note": "[Example 8, [10R,4bR-(4b beta,9a beta)]-7-[(N-phenyl-N-ethyl)aminocarbonyl]-4b,5,9,9a, 10,11-hexahydro-9a-hydroxy-(6H)-8-methyl-10,4(iminoethano)-phenanthro[3,2-b]pyrrole]", "values": [
      {"measurement": "in vitro Clearance (human microsomes) CL", "setting": "[1]", "value": 5.9, "unit": "ml/min/g liver"}
    ]},
    {"compound": "Cc1c2c(n(C)c1C(=O)N(Cc1ccccc1)C(C)C)CC13CCNC(Cc4ccccc41)C3(O)C2", "note": "(stereo not drawn) [Example 10, [10R,4bS-(4b beta,9a beta)]-7-(N-benzyl-N-isopropyl)aminocarbonyl-6,8-dimethyl-4b,5,9,9a, 10,11-hexahydro-9a-hydroxy-(6H)-10,4b-(iminoethano)-phenanthro[3,2-b]pyrrole]", "values": [
      {"measurement": "in vitro Clearance (human microsomes) CL", "setting": "[1]", "value": 5.2, "unit": "ml/min/g liver"}
    ]},
    {"compound": "CCN(Cc1ccccc1)C(=O)c1c(C)c2c(n1C)CC13CCNC(Cc4ccccc41)C3C2", "note": "(stereo not drawn) [Example 11, [10R,4bS-(4b beta,9a beta)]-7-(N-ethyl-N-benzyl)aminocarbonyl-6,8-dimethyl-4b,5,9,9a,10,11-hexahydro-(6H)-10-,4b-(iminoethano)phenanthro[3,2-b]pyrrole]", "values": [
      {"measurement": "in vitro Clearance (human microsomes) CL", "setting": "[1]", "value": 13.0, "unit": "ml/min/g liver"}
    ]},
    {"compound": "Cc1c(C(=O)N2CCc3ccccc3C2)[nH]c2c1CC1(O)C3Cc4ccccc4C1(CCN3C)C2", "note": "(stereo not drawn) [Example 21, [10R,4bR-(4b beta,9a beta)]-7-(1,2,3,4-tetrahydroisoquinolin-2-yl)carbonyl-8,14-dimethyl-4b,5,9,9a,10,11-hexahydro-9a-hydroxy-(6H)-10,4b-(iminoethano)phenanthro-[3,2-b]pyrrole]", "values": [
      {"measurement": "in vitro Clearance (human microsomes) CL", "setting": "[1]", "value": 6.0, "unit": "ml/min/g liver"}
    ]},
    {"compound": "[10R,4bR-(4bb,9ab)]-7-(N,N-diisopropyl)aminocarbonyl-8,14-dimethyl4b,5,9,9a,10,11-hexahydro9a-hydroxy-(6H)-10,4b-(iminoethano)phenanthro[3,2-b]pyrrole. [Example 19]", "values": [
      {"measurement": "in vitro Clearance (human microsomes) CL", "setting": "[1]", "value": 5.7, "unit": "ml/min/g liver"}
    ]},
    {"compound": "[10R,4bS-(4b beta,9a beta)]-7-(N-ethyl-N-phenyl)aminocarbonyl-8-methyl-4b,5,9,9a, 10,11-hexahydro-(6H)-10,4b-(iminoethano)phenanthro[3,2-b]pyrrole [Example 9]", "values": [
      {"measurement": "in vitro Clearance (human microsomes) CL", "setting": "[1]", "value": 4.5, "unit": "ml/min/g liver"}
    ]}
  ]
}
